The results in this text go back to patent publication US20240101540A1, “TARGETED PROTEIN DEGRADATION OF PARP14 FOR USE IN THERAPY” (Ribon Therapeutics, Inc., priority 2022, published 2024).

Counter-ions that a name gives are not always drawn.

By DC50 is commonly meant the concentration giving 50% degradation.

The target in this experiment is T1, catalytic domain of human PARP14 (residues 1611 to 1801) with NanoLuc tag (Homo sapiens, UniProt Q460N5).
T1 construct: expressed in transfected cells; host or cells: HEK-293T cells (ATCC), pcDNA3.1(-) vector
T1 sequence (Q460N5 1611-1801): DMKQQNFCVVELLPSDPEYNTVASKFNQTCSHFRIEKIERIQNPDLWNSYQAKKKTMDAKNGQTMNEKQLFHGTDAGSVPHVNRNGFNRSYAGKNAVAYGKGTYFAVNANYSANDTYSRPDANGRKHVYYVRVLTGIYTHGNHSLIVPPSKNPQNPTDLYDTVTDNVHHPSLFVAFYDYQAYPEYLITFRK
The experiment is described as follows: NanoLuc assay for the degradation of PARP14 (NanoLuc-tagged PARP14 overexpressed in HEK-293T cells, 2 hours). The note with it: Assay A (Example A): NanoLuc-tagged PARP14 degradation in HEK-293T cells, read-out: DC50. In kind it is cell-based.
`O=C1CCC(N2C(=O)c3ccc(N4CCC(CN5CCC(COc6cc(F)c7c(=O)[nH]c(CSC8CCOCC8)nc7c6)CC5)CC4)cc3C2=O)C(=O)N1` (stereo not drawn) [Example 34, 2-(2,6-dioxopiperidin-3-yl)-5-(4-((4-(((5-fluoro-4-oxo-2-(((tetrahydro-2H-pyran-4-yl)thio)methyl)-3,4-dihydroquinazolin-7-yl)oxy)methyl)piperidin-1-yl)methyl)piperidin-1-yl)isoindoline-1,3-dione]: the half-maximal degradation concentration (DC50) is < 100 nM.
As to `O=C1CCC(N2C(=O)c3cccc(N4CCN(CC5CCN(C(=O)CN6CCC(COc7cc(F)c8c(=O)[nH]c(CCC9CCOCC9)nc8c7)CC6)CC5)CC4)c3C2=O)C(=O)N1` (stereo not drawn) [Example 39, 2-(2,6-dioxopiperidin-3-yl)-4-(4-((1-(2-(4-(((5-fluoro-4-oxo-2-(2-(tetrahydro-2H-pyran-4-yl)ethyl)-3,4-dihydroquinazolin-7-yl)oxy)methyl)piperidin-1-yl)acetyl)piperidin-4-yl)methyl)piperazin-1-yl)isoindoline-1,3-dione], the 50% degradation concentration (DC50) was < 100 nM.
Turning to `O=C1CCC(N2C(=O)c3ccc(N4CC(N5CCC(COc6cc(F)c7c(=O)[nH]c(CSC8CCOCC8)nc7c6)CC5)C4)cc3C2=O)C(=O)N1` (stereo not drawn) [Example 41, 2-(2,6-dioxopiperidin-3-yl)-5-(3-(4-(((5-fluoro-4-oxo-2-(((tetrahydro-2H-pyran-4-yl)thio)methyl)-3,4-dihydroquinazolin-7-yl)oxy)methyl)piperidin-1-yl)azetidin-1-yl)isoindoline-1,3-dione], the DC50 is < 100 nM.
For `O=C1CCC(N2C(=O)c3ccc(N4CC(CN5CCC(COc6cc(F)c7c(=O)[nH]c(CSC8CCOCC8)nc7c6)CC5)C4)cc3C2=O)C(=O)N1` (stereo not drawn) [Example 36, 2-(2,6-dioxopiperidin-3-yl)-5-(3-((4-(((5-fluoro-4-oxo-2-(((tetrahydro-2H-pyran-4-yl)thio)methyl)-3,4-dihydroquinazolin-7-yl)oxy)methyl)piperidin-1-yl)methyl)azetidin-1-yl)isoindoline-1,3-dione], the DC50 is < 100 nM.
Next, `O=C1CCC(N2C(=O)c3cccc(N4CCC(COc5cc(F)c6c(=O)[nH]c(CSC7CCOCC7)nc6c5)CC4)c3C2=O)C(=O)N1` (stereo not drawn) [Example 24, 2-(2,6-dioxopiperidin-3-yl)-4-(4-(((5-fluoro-4-oxo-2-(((tetrahydro-2H-pyran-4-yl)thio)methyl)-3,4-dihydroquinazolin-7-yl)oxy)methyl)piperidin-1-yl)isoindoline-1,3-dione]: < 100 nM; `O=C1CCC(Nc2ccc(N3CC(CN4CCC(COc5cc(F)c6c(=O)[nH]c(CSC7CCOCC7)nc6c5)CC4)C3)cc2)C(=O)N1` (stereo not drawn) [Example 53, 3-((4-(3-((4-(((5-fluoro-4-oxo-2-(((tetrahydro-2H-pyran-4-yl)thio)methyl)-3,4-dihydroquinazolin-7-yl)oxy)methyl)piperidin-1-yl)methyl)azetidin-1-yl)phenyl)amino)piperidine-2,6-dione]: < 100 nM; `O=C1CCC(N2Cc3c(cccc3N3CCN(CCN4CCC(COc5cc(F)c6c(=O)[nH]c(CSC7CCOCC7)nc6c5)CC4)CC3)C2=O)C(=O)N1` (stereo not drawn) [Example 60, 3-(4-(4-(2-(4-(((5-fluoro-4-oxo-2-(((tetrahydro-2H-pyran-4-yl)thio)methyl)-3,4-dihydroquinazolin-7-yl)oxy)methyl)piperidin-1-yl)ethyl)piperazin-1-yl)-1-oxoisoindolin-2-yl)piperidine-2,6-dione]: < 100 nM.
Next, `O=C1CCC(Nc2ccc(C3CCN(CCN4CCC(COc5cc(F)c6c(=O)[nH]c(CSC7CCOCC7)nc6c5)CC4)CC3)cc2)C(=O)N1` (stereo not drawn) [Example 49, 3-((4-(1-(2-(4-(((5-fluoro-4-oxo-2-(((tetrahydro-2H-pyran-4-yl)thio)methyl)-3,4-dihydroquinazolin-7-yl)oxy)methyl)piperidin-1-yl)ethyl)piperidin-4-yl)phenyl)amino)piperidine-2,6-dione]: < 100 nM; `O=C1CCC(N2C(=O)c3ccc(N4CCN(CCN5CCC(COc6cc(F)c7c(=O)[nH]c(CSC8CCOCC8)nc7c6)CC5)CC4)cc3C2=O)C(=O)N1` (stereo not drawn) [Example 62, 2-(2,6-dioxopiperidin-3-yl)-5-(4-(2-(4-(((5-fluoro-4-oxo-2-(((tetrahydro-2H-pyran-4-yl)thio)methyl)-3,4-dihydroquinazolin-7-yl)oxy)methyl)piperidin-1-yl)ethyl)piperazin-1-yl)isoindoline-1,3-dione]: < 100 nM.
In the case of `O=C1CCC(N2C(=O)c3ccc(N4CC(N5CCC(COc6cc(F)c7c(=O)[nH]c(CSC8CCOCC8)nc7c6)C(F)(F)C5)C4)cc3C2=O)C(=O)N1` (stereo not drawn) [Example 42, 5-(3-(3,3-difluoro-4-(((5-fluoro-4-oxo-2-(((tetrahydro-2H-pyran-4-yl)thio)methyl)-3,4-dihydroquinazolin-7-yl)oxy)methyl)piperidin-1-yl)azetidin-1-yl)-2-(2,6-dioxopiperidin-3-yl)isoindoline-1,3-dione], the DC50 is < 100 nM.
Turning to `O=C1CCC(N2C(=O)c3cccc(N4CCN(CCN5CCC(COc6cc(F)c7c(=O)[nH]c(CSC8CCOCC8)nc7c6)CC5)CC4)c3C2=O)C(=O)N1` (stereo not drawn) [Example 61, 2-(2,6-dioxopiperidin-3-yl)-4-(4-(2-(4-(((5-fluoro-4-oxo-2-(((tetrahydro-2H-pyran-4-yl)thio)methyl)-3,4-dihydroquinazolin-7-yl)oxy)methyl)piperidin-1-yl)ethyl)piperazin-1-yl)isoindoline-1,3-dione], the DC50 was < 100 nM.
With `O=C1CCC(Nc2ccc(OC3CC(CN4CCC(COc5cc(F)c6c(=O)[nH]c(CS[C@H]7CC[C@H](O)CC7)nc6c5)CC4)C3)cc2)C(=O)N1` (stereo partly drawn) [Example 90, 3-((4-(3-((4-(((5-fluoro-2-((((1r,4r)-4-hydroxycyclohexyl)thio)methyl)-4-oxo-3,4-dihydroquinazolin-7-yl)oxy)methyl)piperidin-1-yl)methyl)cyclobutoxy)phenyl)amino)piperidine-2,6-dione formate], the DC50 is < 100 nM.
On to `O=C1CCC(Nc2ccc(OC3CC(CN4CCC(COc5cc(F)c6c(=O)[nH]c(CSC7CCOCC7)nc6c5)CC4)C3)cc2)C(=O)N1` (stereo not drawn) [Example 47, 3-({4-[3-({4-[({5-fluoro-2-[(oxan-4-ylsulfanyl)methyl]-4-oxo-3H-quinazolin-7-yl}oxy)methyl]piperidin-1-yl}methyl)cyclobutoxy]phenyl}amino)piperidine-2,6-dione], for which the DC50 was < 100 nM.
Next, `O=C1CCC(Nc2cccc(C3CCN(CCN4CCC(COc5cc(F)c6c(=O)[nH]c(CSC7CCOCC7)nc6c5)CC4)CC3)c2)C(=O)N1` (stereo not drawn) [Example 67, 3-((3-(1-(2-(4-(((5-fluoro-4-oxo-2-(((tetrahydro-2H-pyran-4-yl)thio)methyl)-3,4-dihydroquinazolin-7-yl)oxy)methyl)piperidin-1-yl)ethyl)piperidin-4-yl)phenyl)amino)piperidine-2,6-dione]: < 100 nM.
As for `O=C1CCC(N2C(=O)c3cccc(NCCCCCCC(=O)N4CCC(COc5cc(F)c6c(=O)[nH]c(CSC7CCOCC7)nc6c5)CC4)c3C2=O)C(=O)N1` (stereo not drawn) [Example 11, 2-(2,6-dioxopiperidin-3-yl)-4-((7-(4-(((5-fluoro-4-oxo-2-(((tetrahydro-2H-pyran-4-yl)thio)methyl)-3,4-dihydroquinazolin-7-yl)oxy)methyl)piperidin-1-yl)-7-oxoheptyl)amino)isoindoline-1,3-dione], the half-maximal degradation concentration (DC50) is < 100 nM.
